Laboratory results from patent US20220175768A1, “FGFR TYROSINE KINASE INHIBITORS FOR THE TREATMENT OF UROTHELIAL CARCINOMA” (Janssen Pharmaceutica NV, priority 2019, published 2022).

[1] = 6 mg continuous, regimen 2 (n = 78)
[2] = 8 mg continuous, Regimen 3 (n = 99)
[3] = 8 mg continuous, selected regimen 3 (n = 99)

Method: Study treatment was administered on 28-day cycles. Prior to interim analysis 1, there were 2 treatment regimens. Patients were randomized 1:1 to 28-day cycles to the following 2 regimens until a regimen was selected for further study: Regimen 1 (10 mg once daily intermittent (7 days on/7 days); Regimen 2 (6 mg once daily continuous). Randomization was stratified according to performance status (0 to 1 vs. 2), hemoglobin value (<10 vs. ≥10 g per dl), FGFR alteration type (mutation vs. fusion), prior treatment status (chemotherapy-resistant vs. chemotherapy naïve), and disease distribution (presence or absence of visceral [liver, lung, bone] metastases). Starting dose selection was based on phase 1 efficacy and tolerability.
Thus, after interim analysis, this became a single-arm study. […] Treatment continued until disease progression or unacceptable adverse event(s) per investigator.
All objective responses required confirmation by an additional investigator assessment within 4 to 6 weeks of first assessment. Disease evaluations for regimen 3 were also performed by an independent radiographic review committee. […] Safety was evaluated based on clinical laboratory tests, physical exams, electrocardiograms, and ophthalmology examinations. Adverse events and abnormalities were assessed by investigator and graded per NCI CTCAE v.4.0
Prophylactic measures were taken to minimize risk of common adverse events related to FGFR inhibition. To reduce risk of hyperphosphatemia, a low-phosphate diet was recommended for all patients (600 to 800 mg of dietary phosphate intake per day). To reduce the risk of skin effects, the application of alcohol-free emollient moisturizing cream and avoidance of unnecessary exposure to sunlight, soap, perfumed products, and hot baths was recommended. Patients were asked to keep their fingers and toes clean and nails trimmed to reduce risk of nail effects.
Additional ophthalmology examinations were performed if clinically indicated.

COc1cc(OC)cc(N(CCNC(C)C)c2ccc3ncc(-c4cnn(C)c4)nc3c2)c1 [erdafitinib, N-(3,5-dimethoxy-phenyl)-N′-(1-methylethyl)-N-[3-(1-methyl-1H-pyrazol-4-yl)quinoxalin-6-yl]ethane-1,2-diamine]
Treatment-related adverse event: Asthenia, Any grade [1]: 11 (14) no. (%) | Treatment-related adverse event: Asthenia, Grade 1 [1]: 3 (4) no. (%) | Treatment-related adverse event: Asthenia, Grade 2 [1]: 4 (5) no. (%) | Treatment-related adverse event: Asthenia, Grade ≥3 [1]: 4 (5) no. (%) | Treatment-related adverse event: Conjunctivitis, Any grade [1]: 2 (3) no. (%) | Treatment-related adverse event: Conjunctivitis, Grade 1 [1]: 2 (3) no. (%) | Treatment-related adverse event: Conjunctivitis, Grade 2 [1]: 0 no. (%) | Treatment-related adverse event: Conjunctivitis, Grade ≥3 [1]: 0 no. (%) | Treatment-related adverse event: Decreased appetite, Any grade [1]: 18 (23) no. (%) | Treatment-related adverse event: Decreased appetite, Grade 1 [1]: 7 (9) no. (%) | Treatment-related adverse event: Decreased appetite, Grade 2 [1]: 9 (12) no. (%) | Treatment-related adverse event: Decreased appetite, Grade ≥3 [1]: 2 (3) no. (%) | Treatment-related adverse event: Diarrhea, Any grade [1]: 29 (37) no. (%) | Treatment-related adverse event: Diarrhea, Grade 1 [1]: 16 (21) no. (%) | Treatment-related adverse event: Diarrhea, Grade 2 [1]: 13 (17) no. (%) | Treatment-related adverse event: Diarrhea, Grade ≥3 [1]: 0 no. (%) | Treatment-related adverse event: Dry mouth, Any grade [1]: 31 (40) no. (%) | Treatment-related adverse event: Dry mouth, Grade 1 [1]: 23 (30) no. (%) | Treatment-related adverse event: Dry mouth, Grade 2 [1]: 6 (8) no. (%) | Treatment-related adverse event: Dry mouth, Grade ≥3 [1]: 2 (3) no. (%) | Treatment-related adverse event: Dry skin, Any grade [1]: 16 (21) no. (%) | Treatment-related adverse event: Dry skin, Grade 1 [1]: 8 (10) no. (%) | Treatment-related adverse event: Dry skin, Grade 2 [1]: 8 (10) no. (%) | Treatment-related adverse event: Dry skin, Grade ≥3 [1]: 0 no. (%) | Treatment-related adverse event: Dysgeusia, Any grade [1]: 10 (13) no. (%) | Treatment-related adverse event: Dysgeusia, Grade 1 [1]: 6 (8) no. (%) | Treatment-related adverse event: Dysgeusia, Grade 2 [1]: 4 (5) no. (%) | Treatment-related adverse event: Dysgeusia, Grade ≥3 [1]: 0 no. (%) | Treatment-related adverse event: Fatigue, Any grade [1]: 12 (15) no. (%) | Treatment-related adverse event: Fatigue, Grade 1 [1]: 5 (6) no. (%) | Treatment-related adverse event: Fatigue, Grade 2 [1]: 6 (8) no. (%) | Treatment-related adverse event: Fatigue, Grade ≥3 [1]: 1 (1) no. (%) | Treatment-related adverse event: Hand-foot syndrome, Any grade [1]: 12 (15) no. (%) | Treatment-related adverse event: Hand-foot syndrome, Grade 1 [1]: 4 (5) no. (%) | Treatment-related adverse event: Hand-foot syndrome, Grade 2 [1]: 8 (10) no. (%) | Treatment-related adverse event: Hand-foot syndrome, Grade ≥3 [1]: 0 no. (%) | Treatment-related adverse event: Hyperphosphatemia, Any grade [1]: 49 (63) no. (%) | Treatment-related adverse event: Hyperphosphatemia, Grade 1 [1]: 41 (53) no. (%) | Treatment-related adverse event: Hyperphosphatemia, Grade 2 [1]: 8 (10) no. (%) | Treatment-related adverse event: Hyperphosphatemia, Grade ≥3 [1]: 0 no. (%) | Treatment-related adverse event: Lacrimation increased, Any grade [1]: 12 (15) no. (%) | Treatment-related adverse event: Lacrimation increased, Grade 1 [1]: 9 (12) no. (%) | Treatment-related adverse event: Lacrimation increased, Grade 2 [1]: 3 (4) no. (%) | Treatment-related adverse event: Lacrimation increased, Grade ≥3 [1]: 0 no. (%) | Treatment-related adverse event: Nausea, Any grade [1]: 6 (8) no. (%) | Treatment-related adverse event: Nausea, Grade 1 [1]: 4 (5) no. (%) | Treatment-related adverse event: Nausea, Grade 2 [1]: 2 (3) no. (%) | Treatment-related adverse event: Nausea, Grade ≥3 [1]: 0 no. (%) | Treatment-related adverse event: Onycholysis, Any grade [1]: 13 (17) no. (%) | Treatment-related adverse event: Onycholysis, Grade 1 [1]: 2 (3) no. (%) | Treatment-related adverse event: Onycholysis, Grade 2 [1]: 6 (8) no. (%) | Treatment-related adverse event: Onycholysis, Grade ≥3 [1]: 5 (6) no. (%) | Treatment-related adverse event: Onychomadesis, Any grade [1]: 8 (10) no. (%) | Treatment-related adverse event: Onychomadesis, Grade 1 [1]: 2 (3) no. (%) | Treatment-related adverse event: Onychomadesis, Grade 2 [1]: 6 (8) no. (%) | Treatment-related adverse event: Onychomadesis, Grade ≥3 [1]: 0 no. (%) | Treatment-related adverse event: Paronychia, Any grade [1]: 11 (14) no. (%) | Treatment-related adverse event: Paronychia, Grade 1 [1]: 1 (1) no. (%) | Treatment-related adverse event: Paronychia, Grade 2 [1]: 10 (13) no. (%) | Treatment-related adverse event: Paronychia, Grade ≥3 [1]: 0 no. (%) | Treatment-related adverse event: Retinal detachment, Any grade [1]: 8 (10) no. (%) | Treatment-related adverse event: Retinal detachment, Grade 1 [1]: 5 (6) no. (%) | Treatment-related adverse event: Retinal detachment, Grade 2 [1]: 3 (4) no. (%) | Treatment-related adverse event: Retinal detachment, Grade ≥3 [1]: 0 no. (%) | Treatment-related adverse event: Stomatitis, Any grade [1]: 33 (42) no. (%) | Treatment-related adverse event: Stomatitis, Grade 1 [1]: 13 (17) no. (%) | Treatment-related adverse event: Stomatitis, Grade 2 [1]: 13 (17) no. (%) | Treatment-related adverse event: Stomatitis, Grade ≥3 [1]: 7 (9) no. (%) | Treatment-related adverse event: Vision blurred, Any grade [1]: 5 (6) no. (%) | Treatment-related adverse event: Vision blurred, Grade 1 [1]: 3 (4) no. (%) | Treatment-related adverse event: Vision blurred, Grade 2 [1]: 1 (1) no. (%) | Treatment-related adverse event: Vision blurred, Grade ≥3 [1]: 1 (1) no. (%) | Treatment-related adverse event: Alopecia, Grade 3 (8 mg continuous (n = 99)): 0 no. | Treatment-related adverse event: Decreased appetite, Grade 3 (8 mg continuous (n = 99)): 0 no. | Treatment-related adverse event: Dry mouth, Grade 3 (8 mg continuous (n = 99)): 0 no. | Treatment-related adverse event: Dry skin, Grade 3 (8 mg continuous (n = 99)): 0 no. | Treatment-related adverse event: Lacrimation increased, Grade 3 (8 mg continuous (n = 99)): 0 no. | Treatment-related adverse event: Vision blurred, Grade 3 (8 mg continuous (n = 99)): 0 no. | Treatment-related adverse event: Weight decreased, Grade 3 (8 mg continuous (n = 99)): 0 no. | Treatment-related adverse event of special interest or clinical importance: Arrhythmia-related events, Any grade [2]: 0 no. | Treatment-related adverse event of special interest or clinical importance: Arrhythmia-related events, Grade ≥3 [2]: 0 no. | Patients with Abdominal pain, Any grade [3]: 8 (8) no. (%) | Patients with Abdominal pain, Grade 1 [3]: 5 (5) no. (%) | Patients with Abdominal pain, Grade 2 [3]: 2 (2) no. (%) | Patients with Abdominal pain, Grade ≥3 [3]: 1 (1) no. (%) | Patients with Alanine aminotransferase increased, Any grade [3]: 17 (17) no. (%) | Patients with Alanine aminotransferase increased, Grade 1 [3]: 13 (13) no. (%) | Patients with Alanine aminotransferase increased, Grade 2 [3]: 2 (2) no. (%) | Patients with Alanine aminotransferase increased, Grade ≥3 [3]: 2 (2) no. (%) | Patients with Alopecia, Any grade [3]: 29 (29) no. (%) | Patients with Alopecia, Grade 1 [3]: 23 (23) no. (%) | Patients with Alopecia, Grade 2 [3]: 6 (6) no. (%) | Patients with Alopecia, Grade ≥3 [3]: 0 no. (%) | Patients with Anemia, Any grade [3]: 20 (20) no. (%) | Patients with Anemia, Grade 1 [3]: 9 (9) no. (%) | Patients with Anemia, Grade 2 [3]: 7 (7) no. (%) | Patients with Anemia, Grade ≥3 [3]: 4 (4) no. (%) | Patients with Arthralgia, Any grade [3]: 8 (8) no. (%) | Patients with Arthralgia, Grade 1 [3]: 5 (5) no. (%) | Patients with Arthralgia, Grade 2 [3]: 3 (3) no. (%) | Patients with Arthralgia, Grade ≥3 [3]: 0 no. (%) | Patients with Aspartate aminotransferase increased, Any grade [3]: 10 (10) no. (%) | Patients with Aspartate aminotransferase increased, Grade 1 [3]: 8 (8) no. (%) | Patients with Aspartate aminotransferase increased, Grade 2 [3]: 2 (2) no. (%) | Patients with Aspartate aminotransferase increased, Grade ≥3 [3]: 0 no. (%) | Patients with Asthenia, Any grade [3]: 20 (20) no. (%) | Patients with Asthenia, Grade 1 [3]: 2 (2) no. (%) | Patients with Asthenia, Grade 2 [3]: 11 (11) no. (%) | Patients with Asthenia, Grade ≥3 [3]: 7 (7) no. (%) | Patients with Back pain, Any grade [3]: 5 (5) no. (%) | Patients with Back pain, Grade 1 [3]: 4 (4) no. (%) | Patients with Back pain, Grade 2 [3]: 1 (1) no. (%) | Patients with Back pain, Grade ≥3 [3]: 0 no. (%) | Patients with Blood creatinine increased, Any grade [3]: 10 (10) no. (%) | Patients with Blood creatinine increased, Grade 1 [3]: 5 (5) no. (%) | Patients with Blood creatinine increased, Grade 2 [3]: 5 (5) no. (%) | Patients with Blood creatinine increased, Grade ≥3 [3]: 0 no. (%) | Patients with Conjunctivitis, Any grade [3]: 13 (13) no. (%) | Patients with Conjunctivitis, Grade 1 [3]: 6 (6) no. (%) | Patients with Conjunctivitis, Grade 2 [3]: 7 (7) no. (%) | Patients with Conjunctivitis, Grade ≥3 [3]: 0 no. (%) | Patients with Constipation, Any grade [3]: 28 (28) no. (%) | Patients with Constipation, Grade 1 [3]: 19 (19) no. (%) | Patients with Constipation, Grade 2 [3]: 8 (8) no. (%) | Patients with Constipation, Grade ≥3 [3]: 1 (1) no. (%) | Patients with Decreased appetite, Any grade [3]: 38 (38) no. (%) | Patients with Decreased appetite, Grade 1 [3]: 18 (18) no. (%) | Patients with Decreased appetite, Grade 2 [3]: 20 (20) no. (%) | Patients with Decreased appetite, Grade ≥3 [3]: 0 no. (%) | Patients with Diarrhea, Any grade [3]: 50 (51) no. (%) | Patients with Diarrhea, Grade 1 [3]: 31 (31) no. (%) | Patients with Diarrhea, Grade 2 [3]: 15 (15) no. (%) | Patients with Diarrhea, Grade ≥3 [3]: 4 (4) no. (%) | Patients with Dry eye, Any grade [3]: 19 (19) no. (%) | Patients with Dry eye, Grade 1 [3]: 14 (14) no. (%) | Patients with Dry eye, Grade 2 [3]: 4 (4) no. (%) | Patients with Dry eye, Grade ≥3 [3]: 1 (1) no. (%) | Patients with Dry mouth, Any grade [3]: 45 (46) no. (%) | Patients with Dry mouth, Grade 1 [3]: 34 (34) no. (%) | Patients with Dry mouth, Grade 2 [3]: 11 (11) no. (%) | Patients with Dry mouth, Grade ≥3 [3]: 0 no. (%) | Patients with Dry skin, Any grade [3]: 32 (32) no. (%) | Patients with Dry skin, Grade 1 [3]: 24 (24) no. (%) | Patients with Dry skin, Grade 2 [3]: 8 (8) no. (%) | Patients with Dry skin, Grade ≥3 [3]: 0 no. (%) | Patients with Dysgeusia, Any grade [3]: 37 (37) no. (%) | Patients with Dysgeusia, Grade 1 [3]: 23 (23) no. (%) | Patients with Dysgeusia, Grade 2 [3]: 13 (13) no. (%) | Patients with Dysgeusia, Grade ≥3 [3]: 1 (1) no. (%) | Patients with Dyspepsia, Any grade [3]: 11 (11) no. (%) | Patients with Dyspepsia, Grade 1 [3]: 10 (10) no. (%) | Patients with Dyspepsia, Grade 2 [3]: 1 (1) no. (%) | Patients with Dyspepsia, Grade ≥3 [3]: 0 no. (%) | Patients with Dyspnea, Any grade [3]: 8 (8) no. (%) | Patients with Dyspnea, Grade 1 [3]: 4 (4) no. (%) | Patients with Dyspnea, Grade 2 [3]: 2 (2) no. (%) | Patients with Dyspnea, Grade ≥3 [3]: 2 (2) no. (%) | Patients with Fatigue, Any grade [3]: 32 (32) no. (%) | Patients with Fatigue, Grade 1 [3]: 12 (12) no. (%) | Patients with Fatigue, Grade 2 [3]: 18 (18) no. (%) | Patients with Fatigue, Grade ≥3 [3]: 2 (2) no. (%) | Patients with Hand-foot syndrome, Any grade [3]: 23 (23) no. (%) | Patients with Hand-foot syndrome, Grade 1 [3]: 6 (6) no. (%) | Patients with Hand-foot syndrome, Grade 2 [3]: 12 (12) no. (%) | Patients with Hand-foot syndrome, Grade ≥3 [3]: 5 (5) no. (%) | Patients with Hematuria, Any grade [3]: 10 (10) no. (%) | Patients with Hematuria, Grade 1 [3]: 7 (7) no. (%) | Patients with Hematuria, Grade 2 [3]: 1 (1) no. (%) | Patients with Hematuria, Grade ≥3 [3]: 2 (2) no. (%) | Patients with Hyperphosphatemia, Any grade [3]: 76 (77) no. (%) | Patients with Hyperphosphatemia, Grade 1 [3]: 53 (54) no. (%) | Patients with Hyperphosphatemia, Grade 2 [3]: 21 (21) no. (%)
